Measurements published in patent US10864210B2, “Composition and combined medication method for treating enterovirus infection” (priority 2016, dated 2020).

Key:
Format in all cases: cell-based, Enterovirus 71
[1] = system: EV71 containing 3D protein mutation; assay: Mutant virus resistance experiment based on cytopathic effect in Vero cells; details: CPE-based
Method: To determine the resistance of the selected mutant virus and recombinant virus to the compound, the inventors conduct experiments based on cytopathic effects and viral titer reduction experiments. […] EV71 G082 strain is served as a control.
The supernatant from the 16th passage culture was collected and sequenced. EV71 containing 3D protein mutation was constructed by reverse genetics system. The viral titer was determined by plaque formation assay, the virus resistance to favipiravir was detected by viral titer reduction experiment. The experimental method was the same as the compound verification experiment. (B) The effects of itraconazole, rupintrivir, suramin and GW5074 on a virus containing 3D protein mutation were determined using an experiment based on cytopathic effect. The results were processed using Graphpad Prism5. The data in the figure were obtained from two independent parallel experiments, and the error bars represent the standard deviation of the two parallel experiments.

[2] = system: EV71; assay: Evaluation experiment for compounds: inhibition of EV71-induced CPE in RD cells (CellTiter-Glo); details: single compound, 2-fold dilutions
Method: Itraconazole purchased from Sigma-Aldrich is dissolved in DMSO to a final concentration of 10 mM; suramin purchased from Bayer is dissolved in a medium containing 2% FBS to a final concentration of 50 mM; favipiravir purchased from Chembest is dissolved in DMSO to a final concentration of 400 mM; rupintrivir purchased from Santa Cruz is dissolved in DMSO to a final concentration of 2 mM; and GW5074 purchased from Sigma is dissolved in DMSO to a final concentration of 10 mM. To evaluate the inhibition of EV71-induced CPE activity by five compounds, the inventors perform dose dependent experiments.
The raw data are input into an Excel sheet to calculate the signal-to-background ratio (S/B), the signal-to-noise ratio (S/N), Z factor, and the inhibition rate of the test compound against the virus. […] The antiviral activity of the compound CPE inhibition rate=(μcpd−μv)/(μc−μv)×100%, wherein μcpd represents the average signal intensity of the test compound; and the effect of the compound on the cell, cell survival rate=μcpd/μc×100%. The half maximum effect concentration (EC50) is a concentration that causes a 50% maximum effect. The half-cytotoxic concentration (CC50) refers to a concentration of the medicament that causes 50% cytotoxicity, which is expressed in this experiment as a 50% reduction in the fluorescence intensity of the experimental group compared with the control group.
(A) 2-fold dilution of itraconazole, rupintrivir, favipiravir, suramin, and GW5074 were separately added to RD cells, and virus or medium was added and cultured for 96 hours. The cell viability was measured by CellTiter-Glo kit. The inhibitory effects of […] compounds on EV71 and the toxic effects on cells were examined. (B) Virus and 2-fold dilution of itraconazole, rupintrivir, favipiravir, suramin, and GW5074 were separately added into RD cells. After 48 hours of culture, the supernatant was collected and the viral titer was determined by TCID50 method. The results were processed using Graphpad Prism5. The data in the figure were obtained from two independent parallel experiments, and the error bars represent the standard deviation of the two parallel experiments.

[3] = system: EV71 having amino acid residue mutation at position 121 in the 3D protein; assay: Favipiravir resistance screening and viral titer reduction experiment in Vero cells; details: viral titer reduction
Method: (§1) RD cells are seeded in a 12-well plate with 3×10^5 cells/well, cultured overnight at 37° C. for 24 hours. Then EV71 virus solution with MOI=0.1 and 2-fold dilution of itraconazole, rupintrivir, favipiravir, suramin and GW5074 are added and cultured at 37° C. for 48 h. The supernatant is collected, frozen in a −80° C. refrigerator, and then determined for viral titer. To determine the resistance of the passaged virus to favipiravir, the inventors inoculate Vero cells in a 12-well plate, 3×10^5 cells/well and culture overnight at 37° C. After 24 hours, EV71 virus solution with MOI=0.1 is added and 300 μM and 600 μM favipiravir are separately added. After cultured at 37° C. for 48 hours, the supernatant is collected and frozen in a −80° C. refrigerator, and then the viral titer is measured.
The present inventors conduct a passage experiment to screen a favipiravir resistant strain. 3×10^5 Vero cells are seeded in a 12-well plate, cultured overnight at 37° C. […] After 16 continuous passages, the titer of the virus in the supernatant, the resistance to the compound, and sequencing are determined. […]
The supernatant from the 16th passage culture was collected and sequenced. […] The viral titer was determined by plaque formation assay, the virus resistance to favipiravir was detected by viral titer reduction experiment. […]

[4] = system: EV71; assay: Viral titer reduction experiment (single compound)
Method: as §1
EV71, itraconazole, and 0.5 μM or 1 μM of rupintrivir were simultaneously added to Vero cells, the virus was subcultured, and the supernatant was collected.

With `CCOC(=O)/C=C/[C@H](C[C@@H]1CCNC1=O)NC(=O)[C@@H](CC(=O)[C@@H](NC(=O)c1cc(C)on1)C(C)C)Cc1ccc(F)cc1` [rupintrivir] the “cross-resistance of favipiravir-resistant mutant virus compared with wild type virus (G082)” value [1] was “no cross-resistance was found” and the “inhibition of EV71 infection of cells” value [2] was “effective in inhibiting EV71 infection of cells in a dose-dependent manner”.
In the case of `Cc1ccc(C(=O)Nc2ccc(S(=O)(=O)O)c3cc(S(=O)(=O)O)cc(S(=O)(=O)O)c23)cc1NC(=O)c1cccc(NC(=O)Nc2cccc(C(=O)Nc3cc(C(=O)Nc4ccc(S(=O)(=O)O)c5cc(S(=O)(=O)O)cc(S(=O)(=O)O)c45)ccc3C)c2)c1` [suramin], the “cross-resistance of favipiravir-resistant mutant virus compared with wild type virus (G082)” value [1] is reported as “no cross-resistance was found” and the “inhibition of EV71 infection of cells” value [2] is reported as “effective in inhibiting EV71 infection of cells in a dose-dependent manner”.
In the case of `O=C1Nc2ccc(I)cc2/C1=C/c1cc(Br)c(O)c(Br)c1` [GW5074], the “cross-resistance of favipiravir-resistant mutant virus compared with wild type virus (G082)” value [1] is reported as “no cross-resistance was found” and the “inhibition of EV71 infection of cells” value [2] is reported as “effective in inhibiting EV71 infection of cells in a dose-dependent manner”.
With `NC(=O)c1nc(F)cnc1O` [favipiravir] the “inhibition of EV71 infection of cells” value [2] was “effective in inhibiting EV71 infection of cells in a dose-dependent manner” and the “resistance of EV71 with position 121 3D protein mutation to the compound” value [3] was “resistant”.
With `CCC(C)n1ncn(-c2ccc(N3CCN(c4ccc(OCC5COC(Cn6cncn6)(c6ccc(Cl)cc6Cl)O5)cc4)CC3)cc2)c1=O` (centres unmarked) [itraconazole] the “cross-resistance of favipiravir-resistant mutant virus compared with wild type virus (G082)” value [1] was “no cross-resistance was found”, the “inhibition of EV71 infection of cells” value [2] was “effective in inhibiting EV71 infection of cells in a dose-dependent manner” and the “removal of viruses in the cell culture by single compound” value [4] was “could not remove all the viruses in the cell culture”.
